Measurements published in US20120009590A1, “DEVICE AND NON-TOXIC COMPOSITIONS AND METHODS FOR PERMEABILIZATION OF DROSOPHILA EMBRYOS” (The University of Vermont and State Agriculture College, priority 2009, published 2012).

Legend:
engrailed-GFP embryos = details: EPS-permeabilized embryos
Experimental: Incubations of permeabilized embryos were carried out in two types of chambers. Longer-term incubations (6-48 hours) were done in a modified nitex basket (see FIG. 1). The basket-reservoir apparatus was covered with a tight fitting cap to limit evaporation and was incubated at 18° C. for continued development of the embryo. Short term incubations <3 hours were done in a slide chamber (see FIG. 2A). […] Incubations for early embryonic endpoints were done at room temperature and for later developmental endpoint (e.g. gut development and engrailed patterning) at 18° C.
Drug treatments were done by additions to the PBS solution reservoir during incubation in either the slide or basket chambers. Drugs used were: cycloheximide (Fluka 01810, MW=281.35, 50 mM stock in H2O), colchicine (Biomol Labs T118, MW=[…] in H2O), methylmercury chloride (Aldrich 442534, MW=251, 50 mM stock in DMSO), cytochalasin D (Sigma C8273, MW=507.6, 5 mM stock in DMSO) and cyclophosphamide (LKT C9609, MW=279.1, 100 mM stock in H2O).
The engrailed gene encodes a homeodomain transcription factor that is highly conserved in all metazoans. Engrailed is a segment polarity gene whose expression marks the […] boundary of each segment in the embryo. Engrailed also function in neural development to define developing brain regions and regulate growth of axons.

Miscibility with water = format: physicochemical; details: without surfactant
Experimental: The presence of at least one surfactant is required to allow for the formation of a stable emulsion for sufficient time to allow for permeabilization of the embryos (i.e., at least about 10 minutes).

Dorsal-GFP embryos = assay: Dorsal-GFP reporter in preblastoderm embryos; format: in vivo, Drosophila melanogaster; details: EPS treated preblastoderm embryos
Excerpt: We turned to the Dorsal-GFP transgenic fusion construct reporter to further examine the effects of the teratogen CHX. The Dorsal protein is the Drosophila NF-κB homolog which is central to signaling that establishes the dorsal-ventral axis in the embryo. Dorsal protein localizes to ventral cell nuclei where it acts to define the D/V axis.
Using this same Dorsal-GFP construct we see dynamic distribution of Dorsal-GFP in and out of the ventral nuclei of an EPS treated pre-blastoderm embryos (FIG. 13A, B). […] In many cases these early embryos are seen to stall in development. […] Embryos affected at slightly later stages show irregular nuclear Dorsal accumulation (FIG. 13D) as well as varied sizes in the nuclei present (FIG. 13E). It is interesting to note that these deformities occur more frequently in the anterior portion of the embryo, consistent with the gradient of dye dispersal seen in EPS treated embryos.

Canton S embryos = assay: Scoring of cephalic furrow formation and germband elongation in embryos; format: in vivo, Drosophila melanogaster
Experimental: Effects of EPS and cycloheximide or other agents on embryo development were scored using contemporaneous DIC optics and fluorescent visualization. Canton S embryos were collected from a 3 hr laying and aged one additional hour at 25° C. Embryos were treated with 1:10 EPS in H2O for 30-60 seconds followed by washing and immersion in 1 mM rhodamine B dye in PBS for 5 minutes with rocking. Embryos were washed four times in PBS and immersed in PBS containing 10 μM cycloheximide on a Kiehart slide. Embryos were allowed to develop an additional 1.5 hours at ambient temperature (˜23° C.). […] Variable treatments included omission of EPS exposure or omission of cycloheximide or other toxic agent. Each condition was assayed in three independent preparations of embryos with >180 embryos scored for each treatment condition.
We next sought to determine the feasibility of using an early embryogenesis endpoint as an indicator of teratogenic effects. In separate experiments using flies carrying the GFP reporter for the Dorsal protein we determined that CHX had profound effects on the morphogenetic movements of the embryo in the first 3-5 hours of development (see FIG. 13 below). During these stages formation of the cephalic furrow and germband elongation serve as landmarks that are easily identifiable under differential interference contrast (DIC) microscopy (see FIG. 8). […]

Drosophila embryos = assay: Midgut development by blue yolk auto-fluorescence at Stage 16; format: in vivo, Drosophila melanogaster; details: EPS-treated 3 hr old embryos, 10 μM, 18° C., 20 hours
Experimental: The embryo develops into a larva in 22-24 hours at 25° C. (refer to FIG. 9A). […] We investigated a variety of morphological events leading up to stage 17 for potentially easily identifiable endpoints. Through monitoring development under fluorescence time-lapse imaging we observed the highly dynamic pattern of blue fluorescence emitted from the auto-fluorescence of yolk proteins in the embryo. At preblastodem stages a relatively uniformly dispersed blue fluorescence is seen across the embryo (FIG. 11A). Between 3-6 hours of development this pattern changes drastically as the yolk proteins are pushed aside during germband elongation (refer to FIG. 9A). […] Blue fluorescence is seen to consolidate in the lumen of the gut initially as one large mass in the newly fused midgut (FIG. 11A, 12 hrs). […] The compartmentalized strong blue fluorescence in the midgut makes normally developed Stage 16/17 embryos easily discernable under fluorescence (FIG. 11A, 14 hrs).
We next tested the utility of this endpoint to examine small molecule toxicity by exposing permeabilized embryos to cycloheximide (CHX), a potent protein synthesis inhibitor and teratogen. EPS-treated 3 hr old embryos were incubated in the presence (FIG. 11 D, E) or absence (FIG. 11A,B,C) of 10 μM CHX at 18° C. for 20 hours (equivalent to 10 hours at 25° C.) and examined under blue fluorescence. […]

With [CH3][Hg][Cl] [MeHg, methylmercury chloride] the “engrailed-GFP expression pattern and embryo development” value (engrailed-GFP embryos) was “stalls the embryo at Stage 11 and disrupts the regularity of engrailed banding pattern”.

With C=C1[C@@H](C)[C@H]2[C@H](Cc3ccccc3)NC(=O)[C@]23[C@H](OC(C)=O)/C=C/[C@@](C)(O)C(=O)[C@@H](C)C/C=C/[C@H]3[C@@H]1O [Cytochalasin D, cytochalasin D] the “engrailed-GFP expression pattern and embryo development” value (engrailed-GFP embryos) was “stalling of embryo development at Stage 11 with gaps in the Engrailed band of cells in several segments”.

For O=P1(N(CCCl)CCCl)NCCCO1 (centres unmarked) [cyclophosphamide], the “engrailed-GFP expression pattern and embryo development” value (engrailed-GFP embryos) was “overall shortening of the embryo and generates breaks in the bands of engrailed expressing cells”.

For C=C(C)C1CC=C(C)CC1 [Limonene, D-Limonene], the miscibility with water (Miscibility with water) was “not miscible with water”.

With C[C@@H]1C[C@@H]([C@H](O)CC2CC(=O)NC(=O)C2)C(=O)[C@@H](C)C1 [CHX, cycloheximide] the “pattern of nuclear divisions and Dorsal-GFP distribution” value (Dorsal-GFP embryos) was “gross deformities in the pattern of nuclear divisions and Dorsal distribution”, the cephalic furrow formation (Canton S embryos; 2.5 hr old permeabilized embryos, 10 μM, 1.5 hours) was “disruption of cephalic furrow formation” and the “EPS treated embryos with abnormal formation of the cephalic furrow” value (Canton S embryos; CHX 10 μM, EPS treated embryos) was “more than 80%”. For the same molecule, the “gut development (blue fluorescence pattern)” value (Drosophila embryos) was “induced gut malformation”.
